This note sets out measurements from ChEMBL document CHEMBL1150338, “Prediction and identification of drug interactions with the human ATP-binding cassette transporter multidrug-resistance associated protein 2 (MRP2; ABCC2)” (J Med Chem, 2008).

For the data set, the target named is MRP2 (ABCC2) (Homo sapiens, UniProt Q92887). Kind of data set: in vitro.
Where [1] appears, read: probe estradiol-17-beta-glucuronide.
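Also: Inside-out membrane vesicles from Sf9 insect cells expressing human MRP2, measuring uptake of the estradiol glucuronide substrate, expressed as percent of untreated control.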

Sequence of MRP2 (ABCC2) (Q92887 whole entry): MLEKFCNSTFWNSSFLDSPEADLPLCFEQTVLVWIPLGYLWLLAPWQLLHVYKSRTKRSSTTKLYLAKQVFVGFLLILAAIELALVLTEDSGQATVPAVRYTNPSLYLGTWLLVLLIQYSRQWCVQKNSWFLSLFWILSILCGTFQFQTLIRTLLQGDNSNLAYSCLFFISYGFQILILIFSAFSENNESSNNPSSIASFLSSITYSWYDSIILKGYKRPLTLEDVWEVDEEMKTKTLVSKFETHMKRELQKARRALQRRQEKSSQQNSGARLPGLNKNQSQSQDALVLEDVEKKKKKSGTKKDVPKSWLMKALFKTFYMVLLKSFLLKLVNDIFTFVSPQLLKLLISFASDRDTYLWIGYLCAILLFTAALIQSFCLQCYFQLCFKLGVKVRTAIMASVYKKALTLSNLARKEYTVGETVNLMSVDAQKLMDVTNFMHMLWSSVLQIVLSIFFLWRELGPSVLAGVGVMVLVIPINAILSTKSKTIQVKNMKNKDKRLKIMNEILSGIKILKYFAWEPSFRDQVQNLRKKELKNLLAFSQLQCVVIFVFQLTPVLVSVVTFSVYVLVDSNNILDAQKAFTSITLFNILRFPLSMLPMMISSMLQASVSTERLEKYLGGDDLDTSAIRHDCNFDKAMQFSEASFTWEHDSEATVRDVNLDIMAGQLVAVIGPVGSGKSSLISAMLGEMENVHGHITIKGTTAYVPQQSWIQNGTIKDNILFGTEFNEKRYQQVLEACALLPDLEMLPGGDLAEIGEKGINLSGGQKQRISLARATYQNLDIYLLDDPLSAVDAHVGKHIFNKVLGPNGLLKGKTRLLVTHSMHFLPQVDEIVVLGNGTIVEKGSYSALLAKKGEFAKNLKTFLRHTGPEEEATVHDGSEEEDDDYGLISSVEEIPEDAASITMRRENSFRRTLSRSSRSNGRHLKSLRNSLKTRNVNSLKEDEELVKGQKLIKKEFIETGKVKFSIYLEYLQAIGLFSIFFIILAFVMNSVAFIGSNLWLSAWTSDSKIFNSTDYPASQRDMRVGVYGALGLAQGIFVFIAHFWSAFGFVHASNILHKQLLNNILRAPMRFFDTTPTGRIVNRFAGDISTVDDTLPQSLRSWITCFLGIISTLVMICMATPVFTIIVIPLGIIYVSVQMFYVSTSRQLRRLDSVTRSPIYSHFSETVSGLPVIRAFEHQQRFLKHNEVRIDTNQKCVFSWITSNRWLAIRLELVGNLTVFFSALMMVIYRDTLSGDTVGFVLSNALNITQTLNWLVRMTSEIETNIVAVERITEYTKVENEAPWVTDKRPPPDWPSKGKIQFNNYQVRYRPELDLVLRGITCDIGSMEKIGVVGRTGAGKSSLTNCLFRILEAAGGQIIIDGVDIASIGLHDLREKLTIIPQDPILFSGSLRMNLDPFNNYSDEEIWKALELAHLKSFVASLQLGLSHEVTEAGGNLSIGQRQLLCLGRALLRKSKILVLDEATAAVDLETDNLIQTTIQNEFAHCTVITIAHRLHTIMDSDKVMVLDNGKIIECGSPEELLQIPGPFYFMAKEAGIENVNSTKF
Description: Effect on human MRP2-mediated estradiol-17-beta-glucuronide transport in Sf9 cells inverted membrane vesicles relative to control

Regarding `CC(C)(C)NC(=O)[C@@H]1C[C@@H]2CCCC[C@@H]2CN1C[C@@H](O)[C@H](Cc1ccccc1)NC(=O)[C@H](CC(N)=O)NC(=O)c1ccc2ccccc2n1`, the activity under setting [1] was 41%.
Still for that read-out and setting: in the case of `CC(=O)[C@@]1(O)CC[C@H]2[C@@H]3C[C@H](C)C4=CC(=O)CC[C@]4(C)[C@H]3CC[C@@]21C` it was 111%; in that of `CC1=C(CC(=O)O)c2cc(F)ccc2/C1=C\c1ccc([S+](C)[O-])cc1` (configuration not stated), 151%; in that of `CCN(CC)Cc1cc(Nc2ccnc3cc(Cl)ccc23)ccc1O`, 60%.
Still for that read-out and setting: in the case of `CCC[C@@]1(CCc2ccccc2)CC(O)=C([C@H](CC)c2cccc(NS(=O)(=O)c3ccc(C(F)(F)F)cn3)c2)C(=O)O1` it was 88%; in that of `C[n+]1ccc(-c2ccccc2)cc1`, 72%; in that of `CCOc1ccc(-c2nc3cc(-c4nc5cc(N6CCN(C)CC6)ccc5[nH]4)ccc3[nH]2)cc1`, 70%.
Consider `COc1cc2c(cc1OC)CN(CCc1ccc(NC(=O)c3cccc4c(=O)c5cccc(OC)c5[nH]c34)cc1)CC2`, for which the activity under setting [1] is 39%.
Regarding `COc1ccc(/C=C/C(=O)Nc2ccccc2C(=O)O)cc1OC`, under setting [1], the activity was found to be 98%.
With `COc1ccc2c3c([nH]c2c1)[C@H](CC(C)C)N1C(=O)[C@H](CCC(=O)OC(C)(C)C)NC(=O)[C@@H]1C3`, the activity (sf9) is 73%.
Consider `CC(=O)Nc1ccc(S(=O)(=O)Nc2ccc([N+](=O)[O-])cc2)cc1`, for which the activity under setting [1] was 116%.
`CC(=O)Oc1ccc2c(c1)Oc1cc(OC(C)=O)ccc1C21OC(=O)c2cc(C(=O)O)ccc21`: under setting [1], the activity was determined as 7%.
Take `O=C(O)[C@H]1O[C@@H](Oc2ccc([N+](=O)[O-])cc2)[C@H](O)[C@@H](O)[C@@H]1O`: under setting [1], the activity was found to be 99%.
Take `Cc1ccc(N(CC(=O)O)CC(=O)O)c(OCCOc2cc(-c3c4cc(Cl)c(=O)cc-4oc4cc(O)c(Cl)cc34)ccc2N(CC(=O)O)CC(=O)O)c1`: the activity under setting [1] was found to be 9%.
The same measure, in the same setting: in the case of `COc1ccc(CCN(C)CCCC(C#N)(c2ccc(OC)c(OC)c2)C(C)C)cc1OC` (configuration not stated) it was 56%; in that of `CC(C)(C)NC(=O)[C@@H]1CN(Cc2cccnc2)CCN1C[C@@H](O)CC(Cc1ccccc1)C(=O)N[C@H]1c2ccccc2C[C@H]1O` (single isomer, unassigned), 93%; in that of `C#CC1(O)CC[C@H]2[C@@H]3CCc4cc(O)ccc4[C@H]3CC[C@@]21C` (single isomer, unassigned) [ETHINYL ESTRADIOL], 53%.
Regarding `O=C1c2c(O)cc(O)cc2O[C@H](c2ccc(O)c(O)c2)[C@H]1O` [(+)-TAXIFOLIN], the activity under setting [1] was 108%.
`CC(C)N(CC[C@](C(N)=O)(c1ccccc1)c1ccccn1)C(C)C` [(S)-DISOPYRAMIDE]: the activity under setting [1] was 104%.
Consider `CC(=O)Nc1ccc(O[C@@H]2O[C@H](C(=O)O)[C@@H](O)[C@H](O)[C@H]2O)cc1` [ACETAMINOPHEN GLUCURONIDE], for which the activity under setting [1] stood at 150%.
Regarding `Nc1ncnc2c1ncn2CCOCP(=O)(O)O` [ADEFOVIR], the activity under setting [1] amounted to 96%.
As for `NC12CC3CC(CC(C3)C1)C2` [AMANTADINE], the activity under setting [1] was found to be 101%.
For `N=C(N)NC(=O)c1nc(Cl)c(N)nc1N` [AMILORIDE], under setting [1], the activity came out at 82%.
For `Nc1ccc(C(=O)NCC(=O)O)cc1` [AMINOHIPPURIC ACID], the activity under setting [1] amounted to 46%.
With `CCCCc1oc2ccccc2c1C(=O)c1cc(I)c(OCCN(CC)CC)c(I)c1` [AMIODARONE], the activity (sf9) is 66%.
As for `CN(C)CCC=C1c2ccccc2CCc2ccccc21` [AMITRIPTYLINE], the activity under setting [1] was 51%.
Consider `Cc1cc(=O)n(-c2ccccc2)n1C` [ANTIPYRINE], for which the activity under setting [1] is 84%.
With `O=c1cc(-c2ccc(O)cc2)oc2cc(O)cc(O)c12` [APIGENIN], the activity under setting [1] was 94%.
In the case of `COc1ccc(CCN2CCC(Nc3nc4ccccc4n3Cc3ccc(F)cc3)CC2)cc1` [ASTEMIZOLE], under setting [1], the activity is 36%.
For the compound `CNCC[C@@H](Oc1ccccc1C)c1ccccc1` [ATOMOXETINE], the activity under setting [1] was 109%.
Consider `CN1[C@@H]2CC[C@H]1C[C@@H](OC(=O)C(CO)c1ccccc1)C2` (some centres not stated) [ATROPINE], for which the activity under setting [1] is 59%.
Turning to `O=C(O)[C@H]1O[C@@H](Oc2cc3oc(-c4ccccc4)cc(=O)c3c(O)c2O)[C@H](O)[C@@H](O)[C@@H]1O` [BAICALIN], the activity under setting [1] amounted to 34%.
For `CCc1oc2ccccc2c1C(=O)c1cc(Br)c(O)c(Br)c1` [BENZBROMARONE], the activity under setting [1] is 11%.
For the compound `COc1ccc(-c2coc3cc(O)cc(O)c3c2=O)cc1` [BIOCHANIN], the activity under setting [1] turned out to be 84%.
Consider `CCCC1O[C@@H]2C[C@H]3[C@@H]4CCC5=CC(=O)C=C[C@]5(C)[C@H]4[C@@H](O)C[C@]3(C)[C@]2(C(=O)CO)O1` (some centres not stated) [BUDESONIDE], for which the activity under setting [1] worked out at 150%.
With `CC(NC(C)(C)C)C(=O)c1cccc(Cl)c1` (configuration not stated) [BUPROPION], the activity under setting [1] was 106%.
With `C[C@H](CS)C(=O)N1CCC[C@H]1C(=O)O` [CAPTOPRIL], the activity under setting [1] came to 104%.
Consider `NC(=O)N1c2ccccc2C=Cc2ccccc21` [CARBAMAZEPINE], for which the activity under setting [1] came to 86%.
On to `C[N+](C)(C)C[C@H](O)CC(=O)[O-]` [CARNITINE], for which, under setting [1], the activity turned out to be 84%.
As to `CC1=C(C(=O)O)N2C(=O)[C@@H](NC(=O)[C@H](N)c3ccc(O)cc3)[C@H]2SC1` [CEFADROXIL], the activity under setting [1] is 68%.
Still for that read-out and setting: under `Cn1nnnc1SCC1=C(C(=O)O)N2C(=O)[C@@H](NC(=O)[C@H](O)c3ccccc3)[C@H]2SC1` [CEFAMANDOLE] stands 63%; under `Cc1ccc(-c2cc(C(F)(F)F)nn2-c2ccc(S(N)(=O)=O)cc2)cc1` [CELECOXIB], 46%.
Still for that read-out and setting: in the case of `COc1ccc2c(c[n+](C)c3c4cc5c(cc4ccc23)OCO5)c1OC` [CHELERYTHRINE CHLORIDE] it was 43%; in that of `C[C@H](CCC(=O)O)[C@H]1CC[C@H]2[C@@H]3[C@H](O)C[C@@H]4C[C@H](O)CC[C@]4(C)[C@H]3CC[C@]12C` [CHENODIOL], 101%.
On to `CCN(CC)CCCC(C)Nc1ccnc2cc(Cl)ccc12` (configuration not stated) [CHLOROQUINE], for which, under “sf9”, the activity was 102%.
With `CN(C)CCCN1c2ccccc2Sc2ccc(Cl)cc21` [CHLORPROMAZINE], for the setting “sf9”, the activity turned out to be 58%.
`CN(C)CC/C=C1/c2ccccc2Sc2ccc(Cl)cc21` [CHLORPROTHIXENE]: the activity under setting [1] came out at 25%.
As for `C[C@H](CCC(=O)O)[C@H]1CC[C@H]2[C@@H]3[C@H](O)C[C@@H]4C[C@H](O)CC[C@]4(C)[C@H]3C[C@H](O)[C@]12C` [CHOLIC ACID], the activity under setting [1] was 112%.
On the same count and under the same terms, under `O=c1cc(-c2ccccc2)oc2cc(O)cc(O)c12` [CHRYSIN] stands 110%.
Turning to `CN/C(=N/CCSCc1nc[nH]c1C)NC#N` [CIMETIDINE], the activity (sf9) amounted to 91%.
Turning to `Clc1ccccc1C(c1ccccc1)(c1ccccc1)n1ccnc1` [CLOTRIMAZOLE], under setting [1], the activity came to 14%.
Regarding `COc1cc2c(c(OC)c1OC)-c1ccc(OC)c(=O)cc1[C@@H](NC(C)=O)CC2` [COLCHICINE], under setting [1], the activity turned out to be 101%.
With `CNCCCN1c2ccccc2CCc2ccccc21` [DESIPRAMINE], under setting [1], the activity is 57%.
For the compound `COc1ccc2c(c1)[C@]13CCCC[C@@H]1[C@H](C2)N(C)CC3` [DEXTROMETHORPHAN], the activity under setting [1] was 57%.
With `O=C(O)Cc1ccccc1Nc1c(Cl)cccc1Cl` [DICLOFENAC], under setting [1], the activity was 198%.
With `CC/C(=C(/CC)c1ccc(O)cc1)c1ccc(O)cc1` [DIETHYLSTILBESTROL], the activity under setting [1] came out at 11%.
As to `C[C@H]1O[C@@H](O[C@H]2[C@@H](O)C[C@H](O[C@H]3[C@@H](O)C[C@H](O[C@H]4CC[C@@]5(C)[C@H](CC[C@@H]6[C@@H]5C[C@@H](O)[C@]5(C)[C@@H](C7=CC(=O)OC7)CC[C@]65O)C4)O[C@@H]3C)O[C@@H]2C)C[C@H](O)[C@@H]1O` [DIGOXIN], the activity under setting [1] was found to be 99%.
Turning to `COc1ccc([C@@H]2Sc3ccccc3N(CCN(C)C)C(=O)[C@@H]2OC(C)=O)cc1` [DILTIAZEM], the activity under setting [1] turned out to be 40%.
For `OCCN(CCO)c1nc(N2CCCCC2)c2nc(N(CCO)CCO)nc(N3CCCCC3)c2n1` [DIPYRIDAMOLE], the activity under setting [1] was 42%.
Consider `COc1cccc2c1C(=O)c1c(O)c3c(c(O)c1C2=O)C[C@@](O)(C(=O)CO)C[C@@H]3O[C@H]1C[C@H](N)[C@H](O)[C@H](C)O1` [DOXORUBICIN], for which, for the setting “sf9”, the activity amounted to 87%.
As for `CC(C)[C@@]1(NC(=O)[C@@H]2C=C3c4cccc5[nH]cc(c45)C[C@H]3N(C)C2)O[C@@]2(O)[C@@H]3CCCN3C(=O)[C@H](Cc3ccccc3)N2C1=O` [ERGOCRISTINE], the activity under setting [1] is 60%.
With `C#Cc1cccc(Nc2ncnc3cc(OCCOC)c(OCCOC)cc23)c1` [ERLOTINIB], under setting [1], the activity stood at 47%.
Turning to `CC[C@H]1OC(=O)[C@H](C)[C@@H](O[C@H]2C[C@@](C)(OC)[C@@H](O)[C@H](C)O2)[C@H](C)[C@@H](O[C@@H]2O[C@H](C)C[C@H](N(C)C)[C@H]2O)[C@](C)(O)C[C@@H](C)C(=O)[C@H](C)[C@@H](O)[C@]1(C)O` [ERYTHROMYCIN], the activity under setting [1] turned out to be 89%.
For `C[C@]12CC[C@@H]3c4ccc(O)cc4CC[C@H]3[C@@H]1CC[C@@H]2O` [ESTRADIOL], the activity under setting [1] worked out at 123%.
Take `C[C@]12CC[C@@H]3c4ccc(OS(=O)(=O)O)cc4CC[C@H]3[C@@H]1CCC2=O` [ESTRONE SULFURIC ACID]: the activity under setting [1] was 300%.
Still for that read-out and setting: in the case of `COc1cc([C@@H]2c3cc4c(cc3[C@@H](O[C@@H]3O[C@@H]5CO[C@@H](C)O[C@H]5[C@H](O)[C@H]3O)[C@H]3COC(=O)[C@H]23)OCO4)cc(OC)c1O` [ETOPOSIDE] it was 110%; in that of `CC1=C(CC(=O)O)c2cc(F)ccc2/C1=C\c1ccc(S(C)(=O)=O)cc1` [EXISULIND], 113%; in that of `CCOC(=O)C1=C(C)NC(C)=C(C(=O)OC)C1c1cccc(Cl)c1Cl` (configuration not stated) [FELODIPINE], 86%.
For the compound `CC(NCCC(c1ccccc1)c1ccccc1)c1ccccc1` (configuration not stated) [FENDILINE], the activity under setting [1] was determined as 5%.
Regarding `CC(C)OC(=O)C(C)(C)Oc1ccc(C(=O)c2ccc(Cl)cc2)cc1` [FENOFIBRATE], the activity under setting [1] amounted to 46%.
`CC(C)(C(=O)O)c1ccc(C(O)CCCN2CCC(C(O)(c3ccccc3)c3ccccc3)CC2)cc1` (configuration not stated) [FEXOFENADINE]: the activity under setting [1] came out at 97%.
Turning to `Cc1onc(-c2c(F)cccc2Cl)c1C(=O)N[C@@H]1C(=O)N2[C@@H]1SC(C)(C)[C@@H]2C(=O)O` [FLOXACILLIN], the activity under setting [1] came out at 73%.
